Source: patent US8278436B2, “Glycosylated warfarin analogs and uses thereof” (priority 2008, dated 2012)
pIC50: −log10 of the molar value. Where two headings read alike, the source gives them in different places.

Key:
Assay type in all cases: cell-based
[1] = test system: H1299 human lung adenocarcinoma (p53 null) cells; experiment: cell proliferation assay, H1299
Source text: (§1) In this Example, the warfarin neoglycosides of the invention were screened for anti-tumor activity in cell proliferation assays using the following tumor cells lines: A549—human lung adenocarcinoma; H1299—human lung adenocarcinoma (p53 null); HCT-15—human colorectal adenocarcinoma; HT-29—human colorectal adenocarcinoma; MCF7—human breast adenocarcinoma; NCI-H460—human lung adenocarcinoma; SF-268—human CNS adenocarcinoma; and SKOV-3—human ovarian adenocarcinoma.
(§2) All cell lines were maintained as previously reported (see Langenhan, J. M.; Peters, N. R.; Guzei, I. A.; Hoffmann, F. M.; Thorson, J. S. Proc. Natl. Acad. Sci. USA 2005, 102, 12305-12310, which is incorporated by reference herein). Cells were harvested using 0.25% trypsin and 0.1% EDTA and counted in a Cellometer Auto T4 cell counter (Nexcelom, Inc.) prior to dilution for assay plating. Cells were plated at a denity of 500 cells per well in 50 μL volumes in 384-well clear-bottom tissue culture plates (Corning-Costar, Inc.).
(§3) Compounds were added from the 384-well compound stock plates at a 1:100 dilution using a Biomek FX liquid handler equipped with a 384-channel head (Beckman Coulter, Inc.). The plates were incubated for 7 days at 37° C. in a 5% CO2 atmosphere prior to performing the assays. Calcein AM (acetoxymethyl ester) reagent and EthD-1 (30 μL, 10 μM CAM and 100 μM EthD-1) was added and the cells were incubated for 30 min at 37° C. […] resulting from incubation with Calcein AM and EthD-1 was read using a Safire-2 microplate reader at the appropriate wavelengths. To lyse the cells, 15 μL of CellTiter-Glo reagent (Promega Corporation, Inc.) was added and the cells were incubated for 10 min at room temperature with gentle agitation. The luminescence of each plate was re-read to confirm the observed inhibition.
(§4) IC50s for cell proliferation assays were determined for Calcein AM, the ratio of live/dead cells (Calcein AM/EthD-1), and CellTiter-Glo using XLfit 4.0 as previously described (see Langenhan, J. M.; Peters, N. R.; Guzei, I. A.; Hoffmann, F. M.; Thorson, J. S. Proc. Natl. Acad. Sci. USA 2005, 102, 12305-12310, which is incorporated by reference herein). The IC50 determined using the best fit curve for dosage response from any of the 3 assays is reported as the final IC50.

[2] = test system: MCF7 human breast adenocarcinoma cells; experiment: cell proliferation assay, MCF7
Source text: as §1, §2, §3, §4

[3] = test system: NCI-H460 human lung adenocarcinoma cells; experiment: cell proliferation assay, NCI-H460
Source text: as §1, §2, §3
as §4, with “IC50. The best fit curve is defined as the curve with the lowest standard error.” for “IC50.”

NCI/ADR-RES = experiment: cell proliferation assay, NCI/ADR-RES; details: Table 3 summary of most active compounds
Procedure: as §2, §3, §4

[4] = test system: HT-29 human colorectal adenocarcinoma cells; experiment: cell proliferation assay, HT-29
Source text: as §1, §2, §3
as §4, with “IC50. The best fit curve is defined as the curve with the lowest standard error.” for “IC50.”

[5] = test system: SF-268 human CNS adenocarcinoma cells; experiment: cell proliferation assay, SF-268
Source text: as §1, §2, §3, §4

[6] = test system: HCT-15 human colorectal adenocarcinoma cells; experiment: cell proliferation assay, HCT-15; details: Table 3 summary of most active compounds, IC50, read-out: HCT15 Colorectal
Source text: as §1, §2, §3
as §4, with “IC50. The best fit curve is defined as the curve with the lowest standard error.” for “IC50.”

[7] = test system: A549 human lung adenocarcinoma cells; experiment: cell proliferation assay, A549; details: read-out: A549 Lung (+p53)
Source text: as §1, §2, §3
as §4, with “IC50. The best fit curve is defined as the curve with the lowest standard error.” for “IC50.”

[8] = test system: SKOV-3 human ovarian adenocarcinoma cells; experiment: cell proliferation assay, SKOV-3; details: read-out: SKOV3 Ovarian
Source text: as §1, §2, §3
as §4, with “IC50. The best fit curve is defined as the curve with the lowest standard error.” for “IC50.”

[9] = Table 3 summary of most active compounds, listed as L-lyxose
[10] = Table 3 summary of most active compounds
[11] = Table 3 summary of most active compounds, IC50, read-out: H729 Colorectal
[12] = Table 3 summary of most active compounds, IC50, read-out: SF268 Giloblast

Structure (SMILES)	pIC50 [1, 10]	pIC50 [2, 10]	pIC50 [3, 10]	pIC50 (NCI/ADR-RES)	pIC50 [4, 11]	pIC50 [5, 12]	pIC50 [6]	pIC50 [7, 10]	pIC50 [8, 10]	other results
CON(C(C)CC(c1ccccc1)c1c(O)c2ccccc2oc1=O)C1OCC(O)C(O)C1O (mixture of isomers) [WARF Analog 23]	–	–	–	–	–	–	–	–	–	pIC50 [1, 9]: 4.52; pIC50 [2, 9]: 4.74; pIC50 [3, 9]: < 4.00; pIC50 (NCI/ADR-RES; listed as L-lyxose): 4.25; pIC50 ([4]; Table 3 summary of most active compounds, IC50, listed as L-lyxose, read-out: H729 Colorectal): 4.33; pIC50 ([5]; Table 3 summary of most active compounds, IC50, listed as L-lyxose, read-out: SF268 Giloblast): < 4.00; pIC50 ([6]; listed as L-lyxose): 4.85; pIC50 [7, 9]: 4.02; pIC50 [8, 9]: 4.22
CON(C(C)CC(c1ccccc1)c1c(O)c2ccccc2oc1=O)C1CC(C)(O)C(O)C(C)O1 (mixture of isomers) [WARF Analog 37]	< 4.00	< 4.00	< 4.00	< 4.00	< 4.00	< 4.00	4.80	< 4.00	< 4.00	–
CON(C(C)CC(c1ccccc1)c1c(O)c2ccccc2oc1=O)C1C[C@@H](O)[C@@H](O)CO1 (stereo partly drawn) [WARF Analog 10]	4.11	4.18	< 4.00	4.04	4.06	< 4.00	4.92	< 4.00	< 4.00	–
CONC(C)CC(c1ccccc1)c1c(O)c2ccccc2oc1=O (stereo not drawn) [WARF Analog C, 4-hydroxy-3-(3-(methoxyamino)-1-phenylbutyl)-2H-1-benzopyran-2-one]	–	–	–	–	–	–	–	–	–	pIC50 ([1]; Homo sapiens, NCI-H1299, Table 3 summary of most active compounds): < 4.00; pIC50 ([2]; Homo sapiens, MCF7, Table 3 summary of most active compounds): < 4.00; pIC50 ([3]; Homo sapiens, NCI-H460, Table 3 summary of most active compounds): < 4.00; pIC50 (NCI/ADR-RES; Homo sapiens): < 4.00; pIC50 ([4]; Homo sapiens, HT-29, read-out: H729 Colorectal): < 4.00; pIC50 ([5]; Homo sapiens, SF-268, read-out: SF268 Giloblast): < 4.00; pIC50 ([6]; Homo sapiens, HCT-15): < 4.00; pIC50 ([7]; Homo sapiens, A549, Table 3 summary of most active compounds): < 4.00; pIC50 ([8]; Homo sapiens, SK-OV-3, Table 3 summary of most active compounds): < 4.00
